Publication PMC6651024, “LIR Motif-Containing Hyperdisulfide β-Ginkgotide is Cytoprotective, Adaptogenic, and Scaffold-Ready” (Molecules, 2019)
Entries after “also recorded” stand apart in the source; their conditions may differ. Where a SMILES comes first, the peptide text is derived from it.

What was measured:
Beclin-1 (BECN1) = experiment: Western blot of autophagy marker Beclin-1 in SH-SY5Y cells; format: cell-based, human; details: western blot densitometry relative to GAPDH, normalized to vehicle control, mean, triplicates
Experimental: The LIR-containing proteins regulate autophagosome formation by interacting with the protein Atg8 (autophagy-related gene, Atg) family through their LIR sequences. […] The SH-SY5Y cells were cultured with or without β-gB1. The autophagy markers, Beclin-1 (BECN1), LC3B-I, and LC3B-II, were identified and quantified by western blot analysis. Beclin-1 plays an important role in regulating both autophagy and cell death, whereas LC3B is an important component of the autophagy pathway and the most widely used marker for autophagosomes. Two of the processed LC3B protein are LC3B-I and LC3B-II. LC3B-I is a truncated LC3B. In contrast, LC3B-II is a truncated and lipidated version of LC3B-I [28, 29]. Importantly, LC3B-II is centrally involved in the events of autophagosome membrane expansion and fusion. […]
A 25 µg equivalent quantity of each protein samples were resolved on a 10% and 15% SDS-PAGE gel accordingly and transferred onto a nitrocellulose membrane. […] Protein bands were quantitated densitometrically using ImageJ software (ImageJ15.0b, Wayen Rasband, NIH, Bethesda, Maryland, USA), expressed relative to GAPDH, and normalized to the vehicle control cells. […]

[1] = Thermal stability by far-UV circular dichroism spectroscopy; format: physicochemical; details: heating up to 90 °C (20, 55, 90 °C); 42 µM peptide in sodium phosphate buffer pH 7.5; 190-260 nm
Experimental: The secondary structure and thermal stability of the synthetic β-gB1 were assessed using circular dichroism (CD) spectroscopy. The far-UV CD data of β-gB1 were acquired at 20 °C, and secondary structure composition was predicted using the CDSSTR algorithm with a normalized root mean square deviation (RMSD) value of 0.021. The CD spectroscopy spectra agreed with the predicted secondary structure of folded β-gB1, which consists 28% strands, 16% turns, 1% helices, and 55% unordered structures (Figure 1A). The spectrum is in strike contrast with that of the S-reduced β-gB1, which is devoid of a secondary structure (Figure 1A).
Far-UV CD spectra were recorded for the synthetic and folded β-ginkgotide β-gB1 (42 µM) in a sodium phosphate buffer (pH 7.5) on a Chirascan™ CD spectrometer (Applied Photophysics, Leatherhead, UK) equipped with a temperature controller. Spectra were acquired between 190 and 260 nm from 20 to 90 °C using a 1 mm path-length quartz cuvette, a 1 nm spectral bandwidth, and a 1 nm step size. CD spectroscopy data were analyzed for secondary structure content using CDSSTR [23]. CD data were expressed as mean residue ellipticity (in deg cm^2dmol^−1).

H9c2 cells = experiment: MTT-based cell proliferation assay under normoxia, H9c2; design: species or system rat; details: H9c2, 10 µM peptide, 48 h, triplicates
Source text: In addition, β-gB1 is non-toxic to Vero and BHK (baby hamster kidney) cell lines based on an MTT assay. […] LDH is a cytoplasmic enzyme which is rapidly released into the cell culture medium upon plasma membrane damage and is widely used as a marker for cytotoxicity. Thus, an LDH-release assay measures the level of plasma membrane damage to a cell population.
Rat cardio-myoblast cells (H9c2) and […] neuron-like SH-SY5Y cells were purchased from ATCC and maintained in DMEM (Dulbecco’s modified eagle medium) medium supplemented with 10% fetal bovine serum (FBS), 10,000 U/mL of penicillin, and 10,000 µg/mL of streptomycin at 37 °C, 5% CO2.
Cells were cultured in DMEM with or without β-gB1/S-alkylated β-gB1 (β-gB1Alk) for 48 h under normoxia, hypoxia, and hypoxia-reoxygenation conditions. Phosphate-buffered saline (PBS) was used as a vehicle control. After 48 h, MTT (3-(4,5-dimethylthiazol-2-yl)-2,5-diphenyltetrazolium bromide) reagent was added with a final concentration of 0.5 mg/mL, and it was incubated at 37 °C for 2 h. The culture medium was then aspirated, and purple formazan crystals were dissolved in DMSO for colorimetric quantification at 570 nm using a microplate reader with a reference wavelength of 630 nm. […]

With `CC[C@H](C)[C@@H]1NC(=O)[C@@H]2CSSC[C@H](NC(=O)CNC(=O)[C@@H](NC(=O)[C@H](CCC(=O)O)NC(=O)[C@@H](N)Cc3ccc(O)cc3)[C@@H](C)O)C(=O)N[C@@H](CCCCN)C(=O)N[C@@H](CCCNC(=N)N)C(=O)N[C@H]3CSSC[C@@H](C(=O)O)NC(=O)[C@H](CSSC[C@H](NC3=O)C(=O)N[C@@H](Cc3ccc(O)cc3)C(=O)N[C@@H](CC(C)C)C(=O)N[C@@H](CC(=O)O)C(=O)N[C@@H](CCC(=O)O)C(=O)N[C@@H](Cc3ccc(O)cc3)C(=O)NCC(=O)N2)NC(=O)[C@H](CCCNC(=N)N)NC1=O` [β-gB1] (HELM PEPTIDE1{Y.E.T.G.C.K.R.C.C.Y.L.D.E.Y.G.C.I.R.C.C}$PEPTIDE1,PEPTIDE1,5:R3-16:R3|PEPTIDE1,PEPTIDE1,8:R3-20:R3|PEPTIDE1,PEPTIDE1,9:R3-19:R3$$$V2.0; N-terminus and C-terminus assumed) the “Increase of BECN1 expression vs control” value (Beclin-1 (BECN1)) was 1.5 fold, the “Effect of heating on far-UV CD spectrum (thermal denaturation)” value [1] was “did not alter its CD spectrum” and the “Cell viability (growth or death) under normoxia” value (H9c2 cells) was “No change in cell viability; also recorded: no significant effect on the growth or death”.
